Experiments:
Assay in all cases: KINOMEscan competition binding
Settings in all cases: compound 10.0 µM
PRKCE (human) = PRKCE (human) (UniProt Q02156)
RIOK1 (human) = RIOK1 (human) (UniProt Q9BRS2)
PTK2B (human) = PTK2B (human) (UniProt Q14289)
RIPK1 (human) = RIPK1 (human) (UniProt Q13546)
ULK1 (human) = ULK1 (human) (UniProt O75385)
RPS6KA2 KD2 (human) = RPS6KA2 KD2 (human) (UniProt Q15349)
IRAK3 (human) = IRAK3 (human) (UniProt Q9Y616)
TLK1 (human) = TLK1 (human) (UniProt Q9UKI8)
STK3 (human) = STK3 (human) (UniProt Q13188)
CAMK2D (human) = CAMK2D (human) (UniProt Q13557)
ACVR2A (human) = ACVR2A (human) (UniProt P27037)
EPHA3 (human) = EPHA3 (human) (UniProt P29320)
EPHB2 (human) = EPHB2 (human) (UniProt P29323)
PAK1 (human) = PAK1 (human) (UniProt Q13153)
PTK6 (human) = PTK6 (human) (UniProt Q13882)
MAPK12 (human) = MAPK12 (human) (UniProt P53778)
RPS6KA4 KD1 (human) = RPS6KA4 KD1 (human) (UniProt O75676)
Chain of RPS6KA4 KD1 (human) (O75676 whole entry, looked up): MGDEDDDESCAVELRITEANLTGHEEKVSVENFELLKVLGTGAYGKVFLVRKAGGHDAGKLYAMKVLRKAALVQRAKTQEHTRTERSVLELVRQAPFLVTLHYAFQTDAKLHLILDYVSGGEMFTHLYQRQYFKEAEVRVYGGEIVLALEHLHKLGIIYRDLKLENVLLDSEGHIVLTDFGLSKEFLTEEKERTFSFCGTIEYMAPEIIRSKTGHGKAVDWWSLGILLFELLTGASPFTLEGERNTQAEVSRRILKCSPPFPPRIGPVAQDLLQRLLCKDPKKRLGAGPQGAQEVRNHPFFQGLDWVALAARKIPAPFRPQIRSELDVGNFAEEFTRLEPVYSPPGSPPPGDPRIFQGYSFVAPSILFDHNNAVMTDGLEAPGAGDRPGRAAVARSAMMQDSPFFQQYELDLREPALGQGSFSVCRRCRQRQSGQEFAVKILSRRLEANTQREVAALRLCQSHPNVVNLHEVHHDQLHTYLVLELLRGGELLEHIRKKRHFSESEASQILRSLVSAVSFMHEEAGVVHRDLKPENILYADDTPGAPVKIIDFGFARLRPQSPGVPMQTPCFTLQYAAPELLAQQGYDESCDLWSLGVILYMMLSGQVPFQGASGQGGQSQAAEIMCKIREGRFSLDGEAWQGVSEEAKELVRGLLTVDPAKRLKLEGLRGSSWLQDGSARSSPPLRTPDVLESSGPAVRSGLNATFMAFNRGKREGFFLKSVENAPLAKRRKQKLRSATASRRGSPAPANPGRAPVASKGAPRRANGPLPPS

PTK2 (human) = PTK2 (human) (UniProt Q05397)
EPHA2 (human) = EPHA2 (human) (UniProt P29317)
IKBKE (human) = IKBKE (human) (UniProt Q14164)
DDR2 (human) = DDR2 (human) (UniProt Q16832)
RPS6KA4 KD2 (human) = RPS6KA4 KD2 (human) (UniProt O75676)
Chain of RPS6KA4 KD2 (human) (O75676 whole entry, looked up): as above

MAPK13 (human) = MAPK13 (human) (UniProt O15264)
Chain of MAPK13 (human) (O15264 whole entry, looked up): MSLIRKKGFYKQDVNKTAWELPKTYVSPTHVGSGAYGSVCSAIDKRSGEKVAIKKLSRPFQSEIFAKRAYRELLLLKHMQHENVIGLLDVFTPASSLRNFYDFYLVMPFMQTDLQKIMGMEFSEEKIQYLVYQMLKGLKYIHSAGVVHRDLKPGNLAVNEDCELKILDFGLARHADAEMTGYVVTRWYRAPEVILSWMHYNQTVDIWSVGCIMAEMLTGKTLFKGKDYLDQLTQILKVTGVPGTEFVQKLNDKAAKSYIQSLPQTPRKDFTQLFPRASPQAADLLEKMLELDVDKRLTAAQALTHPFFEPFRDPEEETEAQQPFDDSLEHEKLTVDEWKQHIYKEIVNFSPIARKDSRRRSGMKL

HCK (human) = HCK (human) (UniProt P08631)
AAK1 (human) = AAK1 (human) (UniProt Q2M2I8)
CAMK2G (human) = CAMK2G (human) (UniProt Q13555)
EPHB4 (human) = EPHB4 (human) (UniProt P54760)
Chain of EPHB4 (human) (P54760 whole entry, looked up): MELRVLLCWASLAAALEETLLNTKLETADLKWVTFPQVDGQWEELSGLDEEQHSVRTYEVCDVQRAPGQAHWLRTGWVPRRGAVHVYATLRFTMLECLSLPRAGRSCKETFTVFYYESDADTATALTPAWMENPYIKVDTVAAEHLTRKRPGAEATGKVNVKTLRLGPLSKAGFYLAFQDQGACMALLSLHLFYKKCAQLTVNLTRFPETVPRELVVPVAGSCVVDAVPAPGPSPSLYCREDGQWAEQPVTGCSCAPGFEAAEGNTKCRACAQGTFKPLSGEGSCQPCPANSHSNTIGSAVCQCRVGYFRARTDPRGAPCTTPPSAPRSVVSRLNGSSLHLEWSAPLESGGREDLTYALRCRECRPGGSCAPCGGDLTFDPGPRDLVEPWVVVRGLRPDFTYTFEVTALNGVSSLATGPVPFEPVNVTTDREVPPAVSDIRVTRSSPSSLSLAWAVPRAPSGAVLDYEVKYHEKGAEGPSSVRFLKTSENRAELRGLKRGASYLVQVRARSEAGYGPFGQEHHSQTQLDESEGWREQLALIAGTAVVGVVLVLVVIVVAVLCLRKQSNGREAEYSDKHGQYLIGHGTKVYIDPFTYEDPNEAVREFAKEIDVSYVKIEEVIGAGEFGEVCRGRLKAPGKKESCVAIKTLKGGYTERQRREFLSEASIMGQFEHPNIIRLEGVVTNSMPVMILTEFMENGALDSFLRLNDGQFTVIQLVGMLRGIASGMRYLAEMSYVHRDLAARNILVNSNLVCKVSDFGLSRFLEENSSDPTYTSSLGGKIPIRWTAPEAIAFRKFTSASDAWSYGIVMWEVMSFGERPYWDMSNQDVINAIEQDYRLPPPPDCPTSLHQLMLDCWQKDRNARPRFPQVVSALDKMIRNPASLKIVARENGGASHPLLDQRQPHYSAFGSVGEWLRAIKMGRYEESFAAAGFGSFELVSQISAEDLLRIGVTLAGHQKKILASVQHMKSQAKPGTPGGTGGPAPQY

MAP3K7 (human) = MAP3K7 (human) (UniProt O43318)
MAPK6 (human) = MAPK6 (human) (UniProt Q16659)
Chain of MAPK6 (human) (Q16659 whole entry, looked up): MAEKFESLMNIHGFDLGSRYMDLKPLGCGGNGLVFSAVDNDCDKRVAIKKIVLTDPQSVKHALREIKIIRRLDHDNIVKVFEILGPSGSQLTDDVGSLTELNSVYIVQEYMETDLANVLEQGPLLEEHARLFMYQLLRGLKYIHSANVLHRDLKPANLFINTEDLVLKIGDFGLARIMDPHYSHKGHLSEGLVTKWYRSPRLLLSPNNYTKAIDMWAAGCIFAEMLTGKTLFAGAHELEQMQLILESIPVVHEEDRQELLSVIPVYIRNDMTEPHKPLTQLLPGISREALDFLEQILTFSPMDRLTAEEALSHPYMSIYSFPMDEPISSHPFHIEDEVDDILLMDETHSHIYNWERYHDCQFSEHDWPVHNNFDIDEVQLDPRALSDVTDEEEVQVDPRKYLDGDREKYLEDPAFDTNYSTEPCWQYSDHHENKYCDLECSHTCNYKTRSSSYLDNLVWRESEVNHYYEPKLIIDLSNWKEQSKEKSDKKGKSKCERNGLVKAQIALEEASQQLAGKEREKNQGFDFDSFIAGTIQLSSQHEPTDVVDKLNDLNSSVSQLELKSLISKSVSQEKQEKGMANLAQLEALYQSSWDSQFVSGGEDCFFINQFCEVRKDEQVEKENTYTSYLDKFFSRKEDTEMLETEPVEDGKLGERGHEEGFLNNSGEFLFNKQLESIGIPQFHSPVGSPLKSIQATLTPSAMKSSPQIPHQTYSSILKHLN

MAPK15 (human) = MAPK15 (human) (UniProt Q8TD08)
EPHA7 (human) = EPHA7 (human) (UniProt Q15375)
EPHA6 (human) = EPHA6 (human) (UniProt Q9UF33)
CSF1R (human) = CSF1R (human) (UniProt P07333)
TGFBR2 (human) = TGFBR2 (human) (UniProt P37173)
ACVR1 (human) = ACVR1 (human) (UniProt Q04771)
MAP3K5 (human) = MAP3K5 (human) (UniProt Q99683)
Chain of MAP3K5 (human) (Q99683 whole entry, looked up): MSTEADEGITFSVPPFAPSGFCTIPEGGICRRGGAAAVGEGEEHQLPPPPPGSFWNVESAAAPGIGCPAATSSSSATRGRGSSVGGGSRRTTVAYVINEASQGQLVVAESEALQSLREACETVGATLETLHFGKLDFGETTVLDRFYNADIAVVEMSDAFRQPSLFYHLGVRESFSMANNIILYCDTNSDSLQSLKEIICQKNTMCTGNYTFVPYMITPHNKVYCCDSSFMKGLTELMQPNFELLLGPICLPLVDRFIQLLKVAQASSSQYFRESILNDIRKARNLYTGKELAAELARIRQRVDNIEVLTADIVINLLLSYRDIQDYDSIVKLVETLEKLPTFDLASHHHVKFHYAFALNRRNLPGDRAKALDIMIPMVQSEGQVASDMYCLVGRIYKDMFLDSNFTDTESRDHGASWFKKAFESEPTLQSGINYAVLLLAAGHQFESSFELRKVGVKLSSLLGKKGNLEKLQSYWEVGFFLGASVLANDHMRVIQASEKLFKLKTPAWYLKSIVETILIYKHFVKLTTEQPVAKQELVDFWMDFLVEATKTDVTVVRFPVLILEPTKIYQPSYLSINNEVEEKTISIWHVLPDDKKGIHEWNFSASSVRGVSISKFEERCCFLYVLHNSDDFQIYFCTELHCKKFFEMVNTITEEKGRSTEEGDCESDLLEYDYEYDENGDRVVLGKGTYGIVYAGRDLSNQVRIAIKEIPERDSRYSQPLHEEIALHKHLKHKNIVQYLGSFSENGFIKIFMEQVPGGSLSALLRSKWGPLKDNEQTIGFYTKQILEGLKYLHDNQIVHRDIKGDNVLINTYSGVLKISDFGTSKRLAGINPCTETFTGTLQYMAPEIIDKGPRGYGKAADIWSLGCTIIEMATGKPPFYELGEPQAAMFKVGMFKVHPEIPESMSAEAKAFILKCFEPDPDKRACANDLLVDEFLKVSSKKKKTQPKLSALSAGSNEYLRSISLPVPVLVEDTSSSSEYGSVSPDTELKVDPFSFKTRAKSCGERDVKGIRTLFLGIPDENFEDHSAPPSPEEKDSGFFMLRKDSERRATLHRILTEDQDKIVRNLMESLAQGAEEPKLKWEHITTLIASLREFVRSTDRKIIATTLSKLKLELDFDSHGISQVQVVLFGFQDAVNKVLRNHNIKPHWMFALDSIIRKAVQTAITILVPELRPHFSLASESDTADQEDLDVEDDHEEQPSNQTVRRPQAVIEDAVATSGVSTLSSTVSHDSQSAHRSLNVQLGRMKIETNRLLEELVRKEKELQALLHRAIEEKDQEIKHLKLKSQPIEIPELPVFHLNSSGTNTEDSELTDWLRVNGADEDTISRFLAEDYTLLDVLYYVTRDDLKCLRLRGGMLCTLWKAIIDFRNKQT

ZAP70 (human) = ZAP70 (human) (UniProt P43403)
TTK (human) = TTK (human) (UniProt P33981)
MAP3K4 (human) = MAP3K4 (human) (UniProt Q9Y6R4)
CDK19 (human) = CDK19 (human) (UniProt Q9BWU1)

Chain of RIPK1 (human) (Q13546 whole entry, looked up): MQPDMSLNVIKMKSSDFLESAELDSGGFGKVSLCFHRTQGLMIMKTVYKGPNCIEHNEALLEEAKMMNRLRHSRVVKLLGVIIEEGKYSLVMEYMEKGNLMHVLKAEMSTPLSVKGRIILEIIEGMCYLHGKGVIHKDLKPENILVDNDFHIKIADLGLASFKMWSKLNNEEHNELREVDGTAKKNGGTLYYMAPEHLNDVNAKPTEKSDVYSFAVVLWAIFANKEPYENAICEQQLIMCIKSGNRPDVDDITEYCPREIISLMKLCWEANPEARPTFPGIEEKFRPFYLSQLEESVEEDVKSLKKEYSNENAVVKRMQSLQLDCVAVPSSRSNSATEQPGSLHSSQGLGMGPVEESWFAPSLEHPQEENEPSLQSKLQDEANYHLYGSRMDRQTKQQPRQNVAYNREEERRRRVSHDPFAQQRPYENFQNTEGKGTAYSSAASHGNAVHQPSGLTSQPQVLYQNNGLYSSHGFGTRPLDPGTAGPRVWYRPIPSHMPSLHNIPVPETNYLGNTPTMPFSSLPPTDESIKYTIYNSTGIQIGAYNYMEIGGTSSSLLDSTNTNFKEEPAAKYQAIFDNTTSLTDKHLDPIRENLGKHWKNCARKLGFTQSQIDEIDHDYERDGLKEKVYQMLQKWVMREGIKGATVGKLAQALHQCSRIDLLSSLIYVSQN

| Compound | kinase still bound, per cent of control (PRKCE (human)) | kinase still bound, per cent of control (RIOK1 (human)) | kinase still bound, per cent of control (PTK2B (human)) | kinase still bound, per cent of control (RIPK1 (human)) | kinase still bound, per cent of control (ULK1 (human)) | kinase still bound, per cent of control (RPS6KA2 KD2 (human)) | kinase still bound, per cent of control (IRAK3 (human)) | kinase still bound, per cent of control (TLK1 (human)) | kinase still bound, per cent of control (STK3 (human)) | kinase still bound, per cent of control (CAMK2D (human)) | kinase still bound, per cent of control (ACVR2A (human)) | kinase still bound, per cent of control (EPHA3 (human)) | kinase still bound, per cent of control (EPHB2 (human)) | kinase still bound, per cent of control (PAK1 (human)) | kinase still bound, per cent of control (PTK6 (human)) | kinase still bound, per cent of control (MAPK12 (human)) | kinase still bound, per cent of control (RPS6KA4 KD1 (human)) | kinase still bound, per cent of control (PTK2 (human)) | kinase still bound, per cent of control (EPHA2 (human)) | kinase still bound, per cent of control (IKBKE (human)) | also measured |
| --- | --- | --- | --- | --- | --- | --- | --- | --- | --- | --- | --- | --- | --- | --- | --- | --- | --- | --- | --- | --- | --- |
| O=C1Nc2ccc(I)cc2/C1=C/c1cc(Br)c(O)c(Br)c1 | 100% | 14% | 81% | 85% | 100% | 45% | 62% | 100% | 3.3% | 41% | 100% | 66% | 100% | 100% | 85% | 74% | 87% | 98% | 83% | 86% | kinase still bound, per cent of control (DDR2 (human)): 73%; kinase still bound, per cent of control (RPS6KA4 KD2 (human)): 47%; kinase still bound, per cent of control (MAPK13 (human)): 100%; kinase still bound, per cent of control (HCK (human)): 81%; kinase still bound, per cent of control (AAK1 (human)): 5.2%; kinase still bound, per cent of control (CAMK2G (human)): 40%; kinase still bound, per cent of control (EPHB4 (human)): 100%; kinase still bound, per cent of control (MAP3K7 (human)): 67%; kinase still bound, per cent of control (MAPK6 (human)): 100%; kinase still bound, per cent of control (MAPK15 (human)): 61%; kinase still bound, per cent of control (EPHA7 (human)): 100%; kinase still bound, per cent of control (EPHA6 (human)): 100%; kinase still bound, per cent of control (CSF1R (human)): 71%; kinase still bound, per cent of control (TGFBR2 (human)): 56%; kinase still bound, per cent of control (ACVR1 (human)): 31%; kinase still bound, per cent of control (MAP3K5 (human)): 100%; kinase still bound, per cent of control (ZAP70 (human)): 84%; kinase still bound, per cent of control (TTK (human)): 17%; kinase still bound, per cent of control (MAP3K4 (human)): 95%; kinase still bound, per cent of control (CDK19 (human)): 63% |
| CCOc1cc2ncc(C#N)c(Nc3ccc(OCc4ccccn4)c(Cl)c3)c2cc1NC(=O)/C=C/CN(C)C | 100% | 68% | 90% | 100% | 100% | 100% | 85% | 86% | 1.4% | 100% | 100% | 85% | 86% | 16% | 100% | 100% | 100% | 65% | 94% | 100% | kinase still bound, per cent of control (DDR2 (human)): 100%; kinase still bound, per cent of control (RPS6KA4 KD2 (human)): 94%; kinase still bound, per cent of control (MAPK13 (human)): 99%; kinase still bound, per cent of control (HCK (human)): 35%; kinase still bound, per cent of control (AAK1 (human)): 68%; kinase still bound, per cent of control (CAMK2G (human)): 95%; kinase still bound, per cent of control (EPHB4 (human)): 91%; kinase still bound, per cent of control (MAP3K7 (human)): 90%; kinase still bound, per cent of control (MAPK6 (human)): 100%; kinase still bound, per cent of control (MAPK15 (human)): 100%; kinase still bound, per cent of control (EPHA7 (human)): 97%; kinase still bound, per cent of control (EPHA6 (human)): 99%; kinase still bound, per cent of control (CSF1R (human)): 68%; kinase still bound, per cent of control (TGFBR2 (human)): 100%; kinase still bound, per cent of control (ACVR1 (human)): 100%; kinase still bound, per cent of control (MAP3K5 (human)): 100%; kinase still bound, per cent of control (ZAP70 (human)): 87%; kinase still bound, per cent of control (TTK (human)): 100%; kinase still bound, per cent of control (MAP3K4 (human)): 4.8%; kinase still bound, per cent of control (CDK19 (human)): 100% |
| Cc1ccc(C(=O)Nc2cccc(C(F)(F)F)c2)cc1Nc1cncc(C(N)=O)c1 | 100% | 100% | 100% | 100% | 100% | 100% | 100% | 100% | 100% | 100% | 100% | 8.8% | 1.6% | 100% | 100% | 100% | 100% | 100% | 2.2% | 100% | kinase still bound, per cent of control (DDR2 (human)): 0%; kinase still bound, per cent of control (RPS6KA4 KD2 (human)): 100%; kinase still bound, per cent of control (MAPK13 (human)): 100%; kinase still bound, per cent of control (HCK (human)): 100%; kinase still bound, per cent of control (AAK1 (human)): 100%; kinase still bound, per cent of control (CAMK2G (human)): 100%; kinase still bound, per cent of control (EPHB4 (human)): 6.9%; kinase still bound, per cent of control (MAP3K7 (human)): 100%; kinase still bound, per cent of control (MAPK6 (human)): 100%; kinase still bound, per cent of control (MAPK15 (human)): 100%; kinase still bound, per cent of control (EPHA7 (human)): 100%; kinase still bound, per cent of control (EPHA6 (human)): 100%; kinase still bound, per cent of control (CSF1R (human)): 1.4%; kinase still bound, per cent of control (TGFBR2 (human)): 100%; kinase still bound, per cent of control (ACVR1 (human)): 100%; kinase still bound, per cent of control (MAP3K5 (human)): 100%; kinase still bound, per cent of control (ZAP70 (human)): 100%; kinase still bound, per cent of control (TTK (human)): 100%; kinase still bound, per cent of control (MAP3K4 (human)): 100%; kinase still bound, per cent of control (CDK19 (human)): 25% |

Reference: the kinase profiling compilation of Christmann-Franck et al. (2016)
